# Reference: patent US20200163984A1, “USE OF ISOVALERYL SPIRAMYCIN I, II AND/OR III IN MANUFACTURING MEDICAMENT FOR TREATING AND/OR PREVENTING TUMOR, AND MEDICAMENT” (SHENYANG FUYANG PHARMACEUTICAL TECHNOLOGY CO., LTD., priority 2017, published 2020)
# Columns and labels:
# [1] = tested on: transplanted tumor of human large cell lung cancer H460 cells; assay: H460 transplanted tumor in nude mice; details: for tumor volume and relative tumor volume compared with the model group: low, medium and high doses, P<0.05; for mouse weight compared with the model group: in vivo
# Procedure: Then cell concentration was adjusted to 1×10^7/ml with matrigel, then each nude mouse was inoculated subcutaneously with 0.2 ml of cells at its right armpit and recorded as the first day of inoculation. When the tumor grows to be greater than or equal to 100 mm^3, the mice were randomly divided into 11 groups with 6 mice in each group: isovaleryl spiramycin I groups with doses of 25, 50 and 100 mg/kg, isovaleryl spiramycin II groups with doses of 25, 50 and 100 mg/kg, and isovaleryl spiramycin III groups with doses of 25, 50 and 100 mg/kg. Each group was continuously administered intragastrically for 30 days with a dose of 20 ml/kg. The mice were sacrificed the next day after drug withdrawal and the indicators were tested. The long diameter and short diameter of the tumor, and the body weight of each mouse were recorded every 3 days from drug administration to nude mouse sacrifice.
# The body weight of the nude mice and the long diameter (a) and short diameter (b) of the transplanted tumor were measured every 3 days, and the tumor volume (v), relative tumor volume (RTV) and relative tumor proliferation rate (T/C) are calculated respectively according to the following formulas, wherein V=a×b^2/2; RTV=V/V0 (V0 is the tumor volume before administration, V is the tumor volume before sacrifice), and T/C (%)=treatment group RTV/model control group RTV×100%.
# Each mouse was weighed and sacrificed. After the tumor was completely stripped off from the body of the mouse, the non-tumor tissues such as blood stains and fat were removed to weigh the tumor and calculate the tumor growth inhibition rate. The average tumor weight of each group of mice is used as an indicator of efficacy. Tumor growth inhibition rate (%)=(1−the average tumor weight of the treatment group/the average tumor weight of the model group)×100%.
# [2] = tested on: human breast cancer cells MDA-MB-231; details: MDA-MB-231, MTT, 48 hours
# Procedure: (§1) The purpose of the assay is to evaluate the in vitro cell proliferation inhibition or cytotoxic activity of a tested sample.
# (§2) MCF-7, MDA-MB-231, HepG2, A549, H460, H1299, 786-0, 769-P, U251, A172, HeLa, PC3, PANC-1, TE-1, SGC7901, and HT-29 were adherent tumor cells. The adherent tumor cells in the logarithmic growth phase were selected and digested with trypsin, then were prepared into a 4 to 5×10^4/ml cell suspension by a medium containing 10% fetal bovine serum. And the cell suspension was inoculated in a 96-well culture plate, and each well was 100 μL. The 96-well culture plate was cultured at 37° C. and 5% CO2 for 24 hours. The experimental group was replaced with a new culture medium containing different concentrations of the sample to be tested, namely, isovaleryl spiramycin I, isovaleryl spiramycin II, or isovaleryl spiramycin III, while the control group was replaced with a culture medium containing the same volume of solvent. Each group was set up with 3 parallel wells that were cultured at 37° C. and 5% CO2 for 48 hours. After the supernatant was removed, the wells were washed carefully for 3 times with PBS. And 100 μL of freshly prepared culture medium containing 0.5 mg/ml MTT was added to each well for continuous incubation for 4 hours at 37° C. After the supernatant was removed carefully, 150 μL of DMSO was added to each well, and after the material was mixed for 10 minutes with a micro-oscillator, the optical density value was measured at 492 nm with a microplate reader.
# (§3) The inhibition rate of the medicament on tumor cell growth is calculated according to the following formula:
# (§4) Tumor cell growth inhibition rate (%)=[A492 (negative control)−A492 (dosing group)]/A492 (negative control)×100%
# (§5) And the half-inhibitory concentration (IC50) of the sample is determined therefrom.
# [3] = tested on: human non-small cell lung cancer cells A549; details: A549, MTT, 48 hours
# Procedure: as §1, §2, §3, §4, §5
# human glioma cell U251 = details: U251, MTT, 48 hours
# Procedure: as §1, §2, §3, §4, §5
# [4] = tested on: human glioblastoma cell A172; details: A172, MTT, 48 hours
# Procedure: as §1, §2, §3, §4, §5
# [5] = tested on: human colon cancer cell HT-29; details: HT-29, MTT, 48 hours
# Procedure: as §1, §2, §3, §4, §5
# [6] = tested on: human breast cancer cells MCF-7; details: MCF-7, MTT, 48 hours
# Procedure: as §1, §2, §3, §4, §5
# [7] = tested on: human pancreatic cancer cell PANC-1; details: PANC-1, MTT, 48 hours
# Procedure: as §1, §2, §3, §4, §5
# [8] = tested on: human prostate cancer cell PC3; details: PC3, MTT, 48 hours
# Procedure: as §1, §2, §3, §4, §5
# [9] = tested on: human large cell lung cancer cells H1299; details: H1299, MTT, 48 hours
# Procedure: as §1, §2, §3, §4, §5
# [10] = tested on: human renal clear cell adenocarcinoma cell 786-O; details: MTT, 48 hours
# Procedure: as §1, §2, §3, §4, §5
# [11] = tested on: human renal cell adenocarcinoma cell 769-P; details: MTT, 48 hours
# Procedure: as §1, §2, §3, §4, §5
# [12] = tested on: human gastric adenocarcinoma cell SGC7901; details: SGC-7901, MTT, 48 hours
# Procedure: as §1, §2, §3, §4, §5
# [13] = tested on: human hepatoma cells HepG2; details: HepG2, MTT, 48 hours
# Procedure: as §1, §2, §3, §4, §5
# [14] = tested on: human large cell lung cancer cells H460; details: H460, MTT, 48 hours
# Procedure: as §1, §2, §3, §4, §5
# [15] = tested on: human esophageal cancer cell TE-1; details: TE-1, MTT, 48 hours
# Procedure: as §1, §2, §3, §4, §5
# [16] = tested on: human cervical cancer cell HeLa; details: MTT, 48 hours
# Procedure: as §1, §2, §3, §4, §5
# [17] = H460, 25 mg/kg (low dose) i.g. 30 days
# [18] = H460, 50 mg/kg (medium dose) i.g. 30 days
# [19] = H460, 100 mg/kg (high dose) i.g. 30 days
SMILES,"Inhibition Rate (tumor growth inhibition rate) [1, 17] [%]","Relative Tumor Proliferation Rate (T/C) [1, 17] [%]","Relative Tumor Volume (RTV) [1, 17]","Tumor Volume (d 1) [1, 17] [mm3]","Tumor Volume (d 30) [1, 17] [mm3]","Tumor Weight [1, 17] [g]","Inhibition Rate (tumor growth inhibition rate) [1, 18] [%]","Relative Tumor Proliferation Rate (T/C) [1, 18] [%]","Relative Tumor Volume (RTV) [1, 18]","Tumor Volume (d 1) [1, 18] [mm3]","Tumor Volume (d 30) [1, 18] [mm3]","Tumor Weight [1, 18] [g]","Inhibition Rate (tumor growth inhibition rate) [1, 19] [%]","Relative Tumor Proliferation Rate (T/C) [1, 19] [%]","Relative Tumor Volume (RTV) [1, 19]","Tumor Volume (d 1) [1, 19] [mm3]","Tumor Volume (d 30) [1, 19] [mm3]","Tumor Weight [1, 19] [g]",tumor volume and relative tumor volume compared with the model group ([1]; H460),mouse weight compared with the model group [1],further results
"COC1C(OC(C)=O)CC(=O)OC(C)CC=CC=CC(OC2CCC(N(C)C)C(C)O2)C(C)CC(CC=O)C1OC1OC(C)C(OC2CC(C)(O)C(OC(=O)CC(C)C)C(C)O2)C(N(C)C)C1O (centres unmarked) [Isovaleryl spiramycin II, isovaleryl spiramycin II]",14.22,51.97,5.46 ± 1.87,147.44 ± 15.40,804.17 ± 292.57,1.48 ± 0.24,34.43,46.49,4.88 ± 1.36,146.77 ± 18.26,700.40 ± 143.83,1.13 ± 0.08,61.12,37.89,3.98 ± 1.10,149.76 ± 13.12,604.38 ± 195.98,0.67 ± 0.20,significantly lower,no significant changes,IC50 [2]: 49.60 ± 0.39 µg/mL; IC50 [3]: 36.97 ± 2.92 µg/mL; IC50 (human glioma cell U251): 35.35 ± 1.57 µg/mL; IC50 [4]: 33.62 ± 0.57 µg/mL; IC50 [5]: 31.05 ± 3.23 µg/mL; IC50 [6]: 51.14 ± 2.54 µg/mL; IC50 [7]: 31.93 ± 0.12 µg/mL; IC50 [8]: 32.88 ± 0.53 µg/mL; IC50 [9]: 42.24 ± 0.44 µg/mL; IC50 [10]: 20.18 ± 0.86 µg/mL; IC50 [11]: 20.61 ± 0.48 µg/mL; IC50 [12]: 39.14 ± 1.21 µg/mL; IC50 [13]: 37.94 ± 1.71 µg/mL; IC50 [14]: 41.16 ± 0.71 µg/mL; IC50 [15]: 35.59 ± 2.64 µg/mL; IC50 [16]: 33.31 ± 0.40 µg/mL
"O=P1(N(CCCl)CCCl)NCCCO1 (centres unmarked) [Cyclophosphamide, cyclophosphamide, reference compound]",–,–,–,–,–,–,–,–,–,–,–,–,–,–,–,–,–,–,–,–,"Body Weight (d 1) ([1]; H460, 30 mg/kg i.g. 30 days): 20.46 ± 0.54 g; Body Weight (d 30) ([1]; H460, 30 mg/kg i.g. 30 days): 21.20 ± 0.75 g; Inhibition Rate (tumor growth inhibition rate) ([1]; H460, 30 mg/kg i.g. 30 days): 71.08%; Relative Tumor Proliferation Rate (T/C) ([1]; H460, 30 mg/kg i.g. 30 days): 30.86%; Relative Tumor Volume (RTV) ([1]; H460, 30 mg/kg i.g. 30 days): 3.24 ± 0.99; Tumor Volume (d 1) ([1]; H460, 30 mg/kg i.g. 30 days): 146.98 ± 27.55 mm3; Tumor Volume (d 30) ([1]; H460, 30 mg/kg i.g. 30 days): 468.49 ± 128.57 mm3; Tumor Weight ([1]; H460, 30 mg/kg i.g. 30 days): 0.50 ± 0.06 g"
"CO[C@@H]1[C@@H](O[C@@H]2O[C@H](C)[C@@H](O[C@H]3C[C@@](C)(O)[C@@H](OC(=O)CC(C)C)[C@H](C)O3)[C@H](N(C)C)[C@H]2O)[C@@H](CC=O)C[C@@H](C)[C@@H](O[C@H]2CC[C@H](N(C)C)[C@@H](C)O2)/C=C/C=C/C[C@@H](C)OC(=O)C[C@H]1O [Isovaleryl spiramycin I, isovaleryl spiramycin I]",20.70,56.56,5.94 ± 2.02,148.20 ± 15.93,889.44 ± 343.94,1.37 ± 0.13,46.33,49.00,5.15 ± 2.25,148.51 ± 17.68,753.94 ± 306.82,0.93 ± 0.18,70.11,31.96,3.36 ± 0.85,145.08 ± 19.59,477.54 ± 89.21,0.52 ± 0.07,significantly lower,no significant changes,IC50 [2]: 18.12 ± 0.61 µg/mL; IC50 [3]: 19.93 ± 1.66 µg/mL; IC50 (human glioma cell U251): 11.01 ± 0.32 µg/mL; IC50 [4]: 10.24 ± 0.37 µg/mL; IC50 [5]: 17.30 ± 0.52 µg/mL; IC50 [6]: 20.79 ± 1.57 µg/mL; IC50 [7]: 9.96 ± 0.46 µg/mL; IC50 [8]: 9.39 ± 0.85 µg/mL; IC50 [9]: 24.03 ± 2.07 µg/mL; IC50 [10]: 5.08 ± 0.08 µg/mL; IC50 [11]: 5.09 ± 0.04 µg/mL; IC50 [12]: 11.28 ± 1.27 µg/mL; IC50 [13]: 17.90 ± 1.74 µg/mL; IC50 [14]: 19.31 ± 0.35 µg/mL; IC50 [15]: 8.42 ± 1.53 µg/mL; IC50 [16]: 10.31 ± 0.27 µg/mL
